Reference: patent US20260327264A1, “PEPTIDE INHIBITORS OF INTERLEUKIN-23 RECEPTOR” (Zealand Pharma A/S, priority 2023, published 2026)
pIC50: −log10 of the molar value. Like-named read-outs stand apart in the source and are kept apart here. *1 amine or outer side, *2 acyl side, *3 side chain or, on linkers, in order; H or OH if unused. Where a SMILES comes first, the peptide text is derived from it. Bridges are numbered along the chain shown (N, C = ends). [ ]: non-standard residue; d: D form. 2Nal = N[C@@H](Cc1ccc2ccccc2c1)C(=O)O; AEF = NCCOc1ccc(C[C@H](N)C(=O)O)cc1; X1 = O=C(Cc1ccc(CN[*:1])cc1)[*:2]; 3Pal = N[C@@H](Cc1cccnc1)C(=O)O; Cit = NC(=O)NCCC[C@H](N)C(=O)O; αMeL = CC(C)C[C@](C)(N)C(=O)O; Dab = NCC[C@H](N)C(=O)O

Tests used:
[1] = Peptide stability in simulated intestinal fluid (SIF); assay type: in vitro ADME; conditions: pig, simulated intestinal fluid, SIF, pH 6.8, pancreatin, 37° C., 10 μM; for remaining at 4 h, 10 µM: read-out: SIF (% remaining 4 h)
Experimental: (§1) SGF and SIF were prepared based on the United States Pharmacopeia specifications (Test Solutions, United States Pharmacopeia 35, NF 30, 2012). SGF was prepared by dissolving sodium chloride (0.2 g) in 50 mL of water. A volume of 0.7 mL of 10 M HCl was added to adjust the pH of the solution to 1.2 and the volume made up to 100 mL with water. 64 mg porcine pepsin (P7125, Sigma Aldrich) was gently dissolved into 20 mL preheated (37° C.) solution (3.2 g/L) immediately prior to the incubation. SIF was prepared by dissolving monobasic potassium phosphate (0.68 g) in 50 mL of water and adjusting the pH to 6.8 with 1 M NaOH. The volume was subsequently made up to 100 mL with water. 200 mg porcine pancreatin (P1625, Sigma Aldrich) was gently dissolved into 20 mL preheated (37° C.) solution (10 g/L) immediately prior to the incubation.
(§2) To initiate the incubations, 20 μL of peptide stock solution in 50% v/v isopropanol was deposited at the bottom of a well plate and 580 μL matrix solution was added to give a final substrate concentration of 10 μM. The incubation was performed at 37° C. with gentle shaking. 70 μL aliquots were removed at 0, 1 and 4 hours and quenched into 210 μL ice-cold precipitant solution (95% v/v acetonitrile with 0.1% v/v formic acid). After the last timepoint, the sampling plate was mixed for 10 min on a shaking table and centrifuged 10 min at 2200 g. 70 μL resulting supernatant was diluted with 150 μL water, mixed and centrifugated before analysis by liquid chromatography high resolution mass spectrometry. The zero sample was reinjected after the 4-hour sample to confirm that no drift in instrument sensitivity had occurred during the run. Percent remaining at each timepoint was calculated relative to timepoint zero based on absolute peak areas.
(§3) Compounds with a SIF stability (after 4 h) above 70% are considered highly SIF stable. Compounds with a SIF stability (after 4 h) between 30-70% (including 30% and 70%) are considered moderately SIF stable. Compounds with a SIF stability (after 4 h) below 30% are considered SIF unstable. SIF stability values above 100% are due to assay uncertainty and indicate the compound has not degraded.

[2] = Peptide stability in simulated gastric fluid (SGF); assay type: in vitro ADME; conditions: pig, pH 1.2, pepsin, 37° C.
Experimental: as §1, §2
as §3, with “SGF” for “SIF”

human IL-23R = target: T1, human IL-23R (Homo sapiens, UniProt Q5VWK5); experiment: Binding assay: displacement of fluorophore (TAMRA)-labelled reference compound from human IL-23R (BRET, Nluc-IL23R fusion protein membranes); conditions: for Emax: read-out: % displacement (hIL-23R binding)
T1 construct: Nanoluc luciferase (Nluc); secretion signal encoded by the plasmid (not specified); expressed in transfected cells; crude membranes used in the assay
T1 sequence (Q5VWK5 22-629): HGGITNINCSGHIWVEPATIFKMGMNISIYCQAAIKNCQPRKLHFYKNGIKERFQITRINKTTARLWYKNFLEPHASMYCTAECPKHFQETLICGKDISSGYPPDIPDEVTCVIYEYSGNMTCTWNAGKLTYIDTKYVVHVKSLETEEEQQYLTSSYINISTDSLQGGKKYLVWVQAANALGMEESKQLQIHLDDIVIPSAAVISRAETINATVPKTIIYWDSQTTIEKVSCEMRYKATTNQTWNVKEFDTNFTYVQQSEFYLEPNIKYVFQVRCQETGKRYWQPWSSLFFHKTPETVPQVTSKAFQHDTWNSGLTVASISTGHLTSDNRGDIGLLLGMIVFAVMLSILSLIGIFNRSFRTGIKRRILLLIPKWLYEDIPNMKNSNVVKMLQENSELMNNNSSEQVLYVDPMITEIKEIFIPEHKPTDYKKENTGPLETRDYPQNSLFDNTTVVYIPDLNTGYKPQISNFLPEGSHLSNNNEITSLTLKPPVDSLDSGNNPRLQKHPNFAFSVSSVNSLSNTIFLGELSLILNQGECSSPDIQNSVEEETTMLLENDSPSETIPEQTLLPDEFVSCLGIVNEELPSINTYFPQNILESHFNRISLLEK
Source text: The assay principle relies on Bioluminescence Resonance Energy Transfer (BRET) between a fluorophore-labelled reference compound binding to the IL-23R part of a fusion protein consisting of the IL-23R fused to a Nanoluc luciferase enzyme (Nanoluc). The Nanoluc is placed in the N-terminus in close proximity to the binding domain of the ligand. Upon close proximity between the fluorophore of the fluorophore-labelled compound and the Nanoluc of the fusion protein, bioluminescence energy generated from conversion of a Nanoluc substrate, is transferred to the fluorophore resulting in an increase in BRET. In presence of an unlabelled compound, the unlabelled compound displaces the fluorophore-labelled peptide from its binding site resulting in a decrease in BRET. The concentration for which half of the fluorophore-labelled peptide is displaced by the unlabelled compound depends on the affinity of the compound for the IL-23R, and is termed the IC50 concentration.
The plasmid also contained a gene to confer resistance for the antibiotic hygromycin. A cell line stably expressing the Nluc-IL23R fusion protein was generated by transfection of HEK293 cells with the expression plasmid and selected with hygromycin for 3 weeks in Growth medium consisting of DMEM w/Glutamax-I containing, 10% V/V FBS, 1% V/V P/S, 1 mM Sodium Pyruvate, and 1× NEAA, and 0.3 mg/mL hygromycin. The remaining cells were propagated and considered a stable expressing Nluc-IL23R fusion protein pool clone.
Cells expressing the Nluc-IL23R fusion protein were expanded in Growth medium and membranes prepared by homogenization of a cell pellet from 18 T175 flasks (4° C. in subsequent steps). The cell pellet was lysed Tris 10 mM, 7.5, 1 mM EDTA and protease inhibitors (Complete, Roche) and homogenized using a 15 mL glass-dounce by 50 strokes. The homogenate was spun at spin @1500 rpm for 10 min, the supernatant transferred to SV-34 tubes and spun at 40000 g for 20 min at 4° C. to pellet the crude membranes. The supernatant was then removed, the pellet resuspended in 5 mL buffer containing 50 mM HEPES pH 7.4, 5 mM EGTA, and 5 mM MgCl2, and homogenized. Aliquots of the resuspended and homogenized membranes containing the Nluc-IL23R fusion protein were stored at −80° C. until use.
The plate was sealed with light impermeable plate seals, and incubated on an orbital shaker 400 rpm for 2 hours at room temperature. To determine the BRET ratio, the plate seal was removed and 25 μL of the Nanoluc substrate (Promega N1572) diluted 1:500 was added to each well and incubated for 1-2 minutes on an orbital shaker at 400 rpm. […] The BRET ratio was calculated as the fluorescence from the TAMRA/nanoluc bioluminescence.
Compound potency (IC50) and maximal displacement (% displacement) were estimated by computer-aided curve fitting using a 4-parameter logistic (4PL) non-linear model. The IC50 and maximal for each compound was determined by computer-aided curve fitting using a 4-parameter logistic (4PL) non-linear model.

[3] = tested on: IL-23 mediated STAT3 signalling (DB cells); experiment: Functional inhibition of IL-23 mediated STAT3 signalling (phospho-STAT3 Tyr705) in DB cells; assay type: cell-based, human; conditions: for hIL-23 (pSTAT3) antagonist % inhibition: Table 3-2, maximal inhibitory response, EC80 of hIL-23
Summary of the method: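 DB cells preincubated 15 min with inhibitor at 37° C, 5% CO2, then stimulated 90 min with hIL-23 at EC80. Lysate phospho-STAT3 measured by MSD electrochemiluminescence. Signal normalized to IL-23-alone and buffer wells; IC50 and maximal inhibition from concentration–response curves.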

[4] = Table 3-2, EC80 of hIL-23, read-out: hIL-23 (pSTAT3) antagonist IC50

Compound	remaining at 4 h, 10 µM [1]	remaining at 1 h, 10 µM [2]	pIC50 (human IL-23R)	Emax (human IL-23R)	pIC50 [3, 4]	hIL-23 (pSTAT3) antagonist % inhibition [3]	remaining at 1 h, 10 µM [1]	remaining at 4 h, 10 µM [2]	pIC50 ([3]; EC80 of hIL-23, read-out: IC50 (pSTAT3))
CNC(=O)[C@H](Cc1cccnc1)NC(=O)C1(NC(=O)[C@@H]2CCC(=O)NCc3ccc(cc3)CC(=O)N[C@@H](CO)C(=O)N[C@H]3CCC(=O)NCC[C@H](NC(=O)[C@H](CCC(N)=O)NC(=O)[C@H](Cc4c[nH]c5ccccc45)NC3=O)C(=O)N[C@@H](Cc3ccc(OCCN)cc3)C(=O)N[C@@H](Cc3ccc4ccccc4c3)C(=O)N[C@@](C)(CC(C)C)C(=O)N2)CCOCC1 [Compound 35, [4-Aminomethyl-phenylacetyl](1c)*SE(2c)WQ[Dab](2c)[Y(2-aminoethoxy)][2-Nal][2-Me-Leu]E(1c)[THP][3-(3-Pyridyl)-Ala]-[NHMe]]	96%	101%	10.41	101%	–	–	–	–	–
CNC(=O)[C@H](Cc1cccnc1)NC(=O)[C@H](CO)NC(=O)[C@@H]1CCC(=O)NCc2ccc(cc2)CC(=O)N[C@@H](CO)C(=O)N[C@H]2CCC(=O)NCC[C@H](NC(=O)[C@H](CCC(N)=O)NC(=O)[C@H](Cc3c[nH]c4ccccc34)NC2=O)C(=O)N[C@@H](Cc2ccc(OCCN)cc2)C(=O)N[C@@H](Cc2ccc3ccccc3c2)C(=O)N[C@@](C)(CC(C)C)C(=O)N1 [Compound 31, [4-Aminomethyl-phenylacetyl](1c)*SE(2c)WQ[Dab](2c)[Y(2-aminoethoxy)][2-Nal][2-Me-Leu]E(1c)S[3-(3-Pyridyl)-Ala]-[NHMe]] ([X1]SEWQ[Dab][AEF][2Nal][αMeL]ES[3Pal]-NHMe; lactam 3-6, N-10)	–	101%	–	97%	10.22	101%	77%	99%	–
CNC(=O)[C@H](Cc1cccnc1)NC(=O)[C@H](CCN)NC(=O)[C@@H]1CCC(=O)NCc2ccc(cc2)CC(=O)N[C@@H](Cc2ccccc2)C(=O)N[C@H]2CCC(=O)NCC[C@H](NC(=O)[C@H](CCC(N)=O)NC(=O)[C@H](Cc3c[nH]c4ccccc34)NC2=O)C(=O)N[C@@H](Cc2ccc(OCCN)cc2)C(=O)N[C@@H](Cc2ccc3ccccc3c2)C(=O)N[C@@](C)(CC(C)C)C(=O)N1 [Compound 21, [4-Aminomethyl-phenylacetyl](1c)*FE(2c)WQ[Dab](2c)[Y(2-aminoethoxy)][2-Nal][2-Me-Leu]E(1c)[Dab][3-(3-Pyridyl)-Ala]-[NHMe]] ([X1]FEWQ[Dab][AEF][2Nal][αMeL]E[Dab][3Pal]-NHMe; lactam 3-6, N-10)	57%	101%	–	–	10.20	102%	–	101%	–
CC(C)C[C@]1(C)NC(=O)[C@H](Cc2ccc3ccccc3c2)NC(=O)[C@H](Cc2ccc(OCCN)cc2)NC(=O)[C@@H]2CCNC(=O)CC[C@H](NC(=O)[C@H](CO)NC(=O)Cc3ccc(cc3)CNC(=O)CC[C@@H](C(=O)N[C@@H](CCN)C(=O)N[C@H](Cc3cccnc3)C(N)=O)NC1=O)C(=O)N[C@@H](Cc1c[nH]c3ccccc13)C(=O)N[C@@H](CCC(N)=O)C(=O)N2 [Compound 5, [4-Aminomethyl-phenylacetyl](1c)*SE(2c)WQ[Dab](2c)[Y(2-aminoethoxy)][2-Nal][2-Me-Leu]E(1c)[Dab][{d}3-(3-Pyridyl)-Ala]-[NH2]]	–	–	–	–	8.68	95%	91%	105%	8.68
CNC(=O)[C@H](Cc1cccnc1)NC(=O)[C@H](CO)NC(=O)[C@@H]1CCC(=O)NCc2ccc(cc2)CC(=O)N[C@@H](C)C(=O)N[C@H]2CCC(=O)NCC[C@H](NC(=O)[C@H](CCC(N)=O)NC(=O)[C@H](Cc3c[nH]c4ccccc34)NC2=O)C(=O)N[C@@H](Cc2ccc(OCCN)cc2)C(=O)N[C@@H](Cc2ccc3ccccc3c2)C(=O)N[C@@](C)(CC(C)C)C(=O)N1 [Compound 40, [4-Aminomethyl-phenylacetyl](1c)*AE(2c)WQ[Dab](2c)[Y(2-aminoethoxy)][2-Nal][2-Me-Leu]E(1c)S[3-(3-Pyridyl)-Ala]-[NHMe]] ([X1]AEWQ[Dab][AEF][2Nal][αMeL]ES[3Pal]-NHMe; lactam 3-6, N-10)	–	–	–	100%	–	–	93%	89%	–
CNC(=O)[C@H](Cc1cccnc1)NC(=O)[C@H](CCC(N)=O)NC(=O)[C@@H]1CCC(=O)NCc2ccc(cc2)CC(=O)N[C@@H](CO)C(=O)N[C@H]2CCC(=O)NCC[C@H](NC(=O)[C@H](CCC(N)=O)NC(=O)[C@H](Cc3c[nH]c4ccccc34)NC2=O)C(=O)N[C@@H](Cc2ccc(OCCN)cc2)C(=O)N[C@@H](Cc2ccc3ccccc3c2)C(=O)N[C@@](C)(CC(C)C)C(=O)N1 [Compound 33, [4-Aminomethyl-phenylacetyl](1c)*SE(2c)WQ[Dab](2c)[Y(2-aminoethoxy)][2-Nal][2-Me-Leu]E(1c)Q[3-(3-Pyridyl)-Ala]-[NHMe]] ([X1]SEWQ[Dab][AEF][2Nal][αMeL]EQ[3Pal]-NHMe; lactam 3-6, N-10)	–	98%	–	–	–	–	92%	–	–
CNC(=O)[C@H](Cc1cccnc1)NC(=O)[C@H](CCN)NC(=O)[C@@H]1CCC(=O)NCc2ccc(cc2)CC(=O)N[C@@H](CO)C(=O)N[C@H]2CCC(=O)NCC[C@H](NC(=O)[C@H](CCCNC(N)=O)NC(=O)[C@H](Cc3c[nH]c4ccccc34)NC2=O)C(=O)N[C@@H](Cc2ccc(OCCN)cc2)C(=O)N[C@@H](Cc2ccc3ccccc3c2)C(=O)N[C@@](C)(CC(C)C)C(=O)N1 [Compound 26, [4-Aminomethyl-phenylacetyl](1c)*SE(2c)W[Cit][Dab](2c)[Y(2-aminoethoxy)][2-Nal][2-Me-Leu]E(1c)[Dab][3-(3-Pyridyl)-Ala]-[NHMe]] ([X1]SEW[Cit][Dab][AEF][2Nal][αMeL]E[Dab][3Pal]-NHMe; lactam 3-6, N-10)	–	105%	–	–	10.38	100%	89%	99%	–
CCCC[C@H](NC(=O)[C@@H]1CCC(=O)NCc2ccc(cc2)CC(=O)N[C@@H](CO)C(=O)N[C@H]2CCC(=O)NCC[C@H](NC(=O)[C@H](CCC(N)=O)NC(=O)[C@H](Cc3c[nH]c4ccccc34)NC2=O)C(=O)N[C@@H](Cc2ccc(OCCN)cc2)C(=O)N[C@@H](Cc2ccc3ccccc3c2)C(=O)N[C@@](C)(CC(C)C)C(=O)N1)C(=O)N[C@@H](Cc1cccnc1)C(=O)NC [Compound 32, [4-Aminomethyl-phenylacetyl](1c)*SE(2c)WQ[Dab](2c)[Y(2-aminoethoxy)][2-Nal][2-Me-Leu]E(1c)[Nle][3-(3-Pyridyl)-Ala]-[NHMe]]	–	–	–	98%	–	–	94%	90%	–
